Tests used:
Format in all cases: cell-based, human
[1] = test system: normal hematopoietic cells; assay: Mitochondrial membrane potential, JC-1 dye; conditions: normal hematopoietic cells from two G-CSF mobilized normal donors
Experimental: (§1) FIG. 4. Tigecycline decreases mitochondrial Cox-1 protein levels in TEX cells. (A) Cells from TEX, OCI-AML2 and two primary AML patients were treated with increasing concentrations (2.5 μM and 5 μM) of tigecycline for 36 and 48 hours of tigecycline. Total proteins were extracted and analyzed by western blotting for Cox-1, Cox-2, Cox-4, grp78, XIAP, actin and tubulin. (B) TEX and AML patient cells were treated with increasing concentrations (2.5 μM and 5 μM) of tigecycline. Cox-1, Cox-2, and Cox-4 mRNA expression relative 18S was determined by quantitative RT-PCR. Data is shown as mean±SD. (C) TEX cells were treated with increasing concentrations of tigecycline and chloramphenicol (CAP) for 72 hours. Complex I, II and IV enzyme activity relative to citrate synthase activity was determined as described in materials and methods. (D) Cells from TEX, primary AML patients, and normal donors were treated with increasing concentrations of tigecycline. Mitochondrial membrane potential (Δψ) was determined by staining cells with JC-1 dye, and flow cytometry analysis (Red/Green ratio). Reactive oxygen species generation (ROS) was determined by staining with h2-DCFDA and Dihydroethidium (DHE).
(§2) To measure mitochondrial membrane potential, cells were treated with tigecycline similarly as described above and then washed twice with PBS and incubated with 5 μM of 5,5′,6,6′-tetrachloro-1,1′,3,3′-tetraethyl benzimidazolylcarbocyanine iodide (JC-1, Sigma-Aldrich) for 20 minutes at 37° C. Each sample was then washed twice with 1 mL PBS and resuspended in 500 μL PBS prior to being read on a BD FACSCalibur. Samples were excited at 488 nm and emission was collected at 526 nm (green) and 595 nm (red). Analysis was conducted using FlowJo software (TreeStar Inc). […]
(§3) During oxidative phosphorylation, the intermediate between oxygen reduction and ATP synthesis is the electrochemical proton gradient, comprised mostly of the mitochondrial membrane potential. […] The effect of tigecycline treatment on the mitochondrial membrane potential as determined by the carbocyanine dye JC-1 was examined. […]

TEX cells = assay: Mitochondrial membrane potential, JC-1 dye; conditions: 5 μM, times preceding onset of cell death
Experimental: as §1, §2, §3

primary AML samples = assay: Mitochondrial membrane potential, JC-1 dye; conditions: three primary AML samples, 5 μM, times preceding onset of cell death
Experimental: as §1, §2, §3

[2] = test system: normal hematopoietic cells; assay: Methylcellulose colony formation assay; conditions: 5 μM, normal hematopoietic cells n=5, colonies at 14 days
Experimental: (§4) FIG. 2. Tigecycline induces cell death and inhibits clonogenic growth in primary AML cells preferential over normal hematopoietic cells. Mononuclear cells from peripheral blood of leukemia patients (blast count >80%) and normal G-CSF expanded donors was treated with increasing concentrations of tigecycline for 48 hours. Cell viability was measured by Annexin-PI flow cytometry staining. Cell viability is expressed as a mean percentage plus or minus SD (n=3) relative to DMSO-treated cells. Mononuclear cells from primary AML patient samples (A, B) and normal peripheral blood cells (C) were plated in methylcelluose with 5 μM of Tigecycline. (D) Colony forming units were counted at 7 days (AML) and 14 days (Normal) post plating. […]
(§5) To assess clonogenic growth, primary AML cells (1.0×10^5/mL) or granulocyte colony-stimulating factor (G-CSF) mobilized PBSCs (1.0×10^5/mL) were plated in duplicate with increasing concentrations of tigecycline in MethoCult GF H4434 medium (StemCell Technologies, Vancouver, BC) containing 1% methycellulose in IMDM, 30% FCS, 1% bovine serum albumin, 3 U/mL of recombinant human erythropoietin, 10^−4 M of 2-mercaptoethanol, 2 mM of L-glutamine, 50 ng/mL of recombinant human stem cell factor, 10 ng/mL of GM-CSF, and 10 ng/mL of rh IL-3). Seven days (AML samples) or 14 days (normal PBCS) after plating, the number of colonies was counted as previously described^31.

[3] = test system: primary AML patient samples; assay: Methylcellulose colony formation assay; conditions: 5 μM, primary AML n=7, colonies at 7 days
Experimental: as §4, §5

SMILES: CN(C)c1cc(NC(=O)CNC(C)(C)C)c(O)c2c1C[C@H]1C[C@H]3[C@H](N(C)C)C(O)=C(C(N)=O)C(=O)[C@@]3(O)C(O)=C1C2=O [tigecycline]
- loss of mitochondrial membrane potential [1]: not seen
- mitochondrial membrane potential (JC-1 Red/Green ratio) (TEX cells): decreased mitochondrial membrane potential
- mitochondrial membrane potential (JC-1 Red/Green ratio) (primary AML samples): decreased mitochondrial membrane potential
- reduction of clonogenic growth [2]: 34±5%
- reduction of clonogenic growth [3]: 93±4%

Reference: patent US20120329761A1, “USE OF TIGECYCLINE FOR TREATMENT OF CANCER” (UNIVERSITY HEALTH NETWORK, priority 2010, published 2012)
